A word on the Ki: it is a dissociation constant, usually derived from enzyme kinetics or from competition with a known ligand.

For 24 compounds, Ki results are on record in patent US7446199B2, “Compositions useful as inhibitors of protein kinases” (Vertex Pharmaceuticals Incorporated, priority 2003, dated 2008).

Holding throughout (assay type): biochemical
The target in one experiment is T1, c-KIT (Homo sapiens, UniProt P10721).
T1 construct: 0.02% BSA and 25 nM c-KIT
As to the kind of experiment: Inhibition of c-KIT, radiometric filter-binding assay. The note with it: 700 μM ATP, 0.5 mg/mL pE4Y, room temperature. In short, it runs like this: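 Radiometric filter-binding: 25 nM c-KIT (enzyme in the Solution 2 mix) with poly(Glu,Tyr) 4:1 substrate at 0.5 mg/mL and [γ-^33P]ATP at 700 μM (both final), in HEPES pH 7.5/MgCl2/NaCl/DTT/BSA with 2.5% DMSO. Incubated 20 min at room temperature, stopped with TCA, and ^33P incorporation counted on filters. 12-point titration, final compound typically 0.01-5 μM; IC50 or Ki from curve fit.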

The target in a further experiment is GSK-3β, (AA 1-420) (Homo sapiens, UniProt P49841). Description: GSK-3 inhibition assay, coupled enzyme system. As to conditions: 20 μM ATP, 300 μM peptide, 20 nM GSK-3b, 30° C.; read-out: Ki values (GSK3). In short, it runs like this:
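Pyruvate kinase/lactate dehydrogenase-coupled NADH assay with 20 nM enzyme, 20 μM ATP and 300 μM peptide in HEPES pH 7.5, 1.5% DMSO, 30° C. Compound (0.002–30 μM, 12-point) preincubated 10 min before ATP start; rates over 10 min gave Ki.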

For a further experiment, the target named is T2, Aurora-2 (Homo sapiens, UniProt O14965).
T2 construct: addition of 10 μL of Aurora-2 stock solution to give a final concentration of 70 nM
T2 sequence (O14965 1-403): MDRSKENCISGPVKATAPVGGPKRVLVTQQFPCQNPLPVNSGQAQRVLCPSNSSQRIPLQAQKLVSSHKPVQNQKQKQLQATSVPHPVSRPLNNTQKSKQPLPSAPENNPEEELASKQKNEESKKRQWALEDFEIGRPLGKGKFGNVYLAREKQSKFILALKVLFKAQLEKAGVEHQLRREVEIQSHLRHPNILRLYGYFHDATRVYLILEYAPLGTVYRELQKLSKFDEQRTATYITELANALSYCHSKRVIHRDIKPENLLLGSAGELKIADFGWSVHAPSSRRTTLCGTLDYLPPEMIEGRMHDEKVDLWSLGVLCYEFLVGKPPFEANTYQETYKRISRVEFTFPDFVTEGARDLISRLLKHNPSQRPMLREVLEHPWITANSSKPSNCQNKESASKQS
Description: Inhibition of AUR-2, coupled enzyme assay. The note with it: 70 nM Aurora-2, 800 μM peptide LRRASLG, 30° C. How it is done:
Compounds are screened in the following manner for their ability to inhibit Aurora-2 using a standard coupled enzyme assay (Fox et al. (1998) Protein Sci 7, 2249). To an assay stock buffer solution containing 0.1M HEPES 7.5, 10 mM MgCl2, 1 mM DTT, 25 mM NaCl, 2.5 mM phosphoenolpyruvate, […], […], […], and 800 μM peptide (LRRASLG, American Peptide, Sunnyvale, Calif.) is added a DMSO solution of a compound of the present invention to a final concentration of 30 μM. The resulting mixture is incubated at 30° C. for 10 min. The reaction was initiated by the addition of 10 μL of Aurora-2 stock solution to give a final concentration of 70 nM in the assay. The rates of reaction are obtained by monitoring absorbance at 340 nm over a 5 minute read time at 30° C. using a BioRad Ultramark plate reader (Hercules, Calif.). The Ki values are determined from the rate data as a function of inhibitor concentration.

SMILES strings stand for the structures.

Sequence of GSK-3β, (AA 1-420) (P49841 whole entry, the tested form may be a part): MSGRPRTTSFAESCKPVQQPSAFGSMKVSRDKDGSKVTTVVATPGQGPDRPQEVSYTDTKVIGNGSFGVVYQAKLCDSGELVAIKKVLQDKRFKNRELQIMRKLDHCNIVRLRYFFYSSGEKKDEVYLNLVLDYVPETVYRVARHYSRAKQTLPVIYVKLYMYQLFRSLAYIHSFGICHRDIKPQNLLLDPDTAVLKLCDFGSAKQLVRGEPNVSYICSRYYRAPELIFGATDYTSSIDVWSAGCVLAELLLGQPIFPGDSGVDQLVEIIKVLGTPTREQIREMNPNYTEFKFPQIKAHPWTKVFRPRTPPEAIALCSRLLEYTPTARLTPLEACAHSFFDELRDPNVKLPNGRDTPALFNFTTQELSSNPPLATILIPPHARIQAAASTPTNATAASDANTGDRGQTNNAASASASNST
T1 sequence (P10721 26-976): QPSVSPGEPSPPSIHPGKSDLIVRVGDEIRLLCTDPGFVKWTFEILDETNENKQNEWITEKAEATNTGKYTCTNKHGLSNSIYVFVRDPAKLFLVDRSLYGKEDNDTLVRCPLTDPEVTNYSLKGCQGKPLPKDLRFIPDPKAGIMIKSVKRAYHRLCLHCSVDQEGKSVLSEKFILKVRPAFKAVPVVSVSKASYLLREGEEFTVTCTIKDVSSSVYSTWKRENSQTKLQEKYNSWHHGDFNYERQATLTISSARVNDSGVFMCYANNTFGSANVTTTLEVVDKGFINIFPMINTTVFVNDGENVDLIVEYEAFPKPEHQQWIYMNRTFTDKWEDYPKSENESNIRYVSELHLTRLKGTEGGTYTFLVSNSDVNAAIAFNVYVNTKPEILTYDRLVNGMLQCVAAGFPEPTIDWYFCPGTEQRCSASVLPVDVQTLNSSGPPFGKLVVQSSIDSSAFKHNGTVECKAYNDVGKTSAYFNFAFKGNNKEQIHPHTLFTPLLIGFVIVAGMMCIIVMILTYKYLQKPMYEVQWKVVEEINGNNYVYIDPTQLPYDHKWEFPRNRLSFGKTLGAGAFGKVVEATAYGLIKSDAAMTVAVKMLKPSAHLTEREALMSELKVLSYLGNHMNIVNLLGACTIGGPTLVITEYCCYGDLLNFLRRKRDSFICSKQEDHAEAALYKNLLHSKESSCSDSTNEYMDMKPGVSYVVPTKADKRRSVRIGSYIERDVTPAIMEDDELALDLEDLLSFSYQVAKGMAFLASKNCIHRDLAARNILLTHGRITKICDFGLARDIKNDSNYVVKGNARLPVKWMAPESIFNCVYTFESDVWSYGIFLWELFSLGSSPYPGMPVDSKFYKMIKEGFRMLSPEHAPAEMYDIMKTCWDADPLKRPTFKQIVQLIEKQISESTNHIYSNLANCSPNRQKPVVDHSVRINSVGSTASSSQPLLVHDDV

Take `CN(C)Cc1ccnc(-c2cnc3[nH]cc(-c4oncc4-c4cccc(F)c4F)c3c2)c1` [Compound 82, (2-{3-[4-(2,3-Difluoro-phenyl)-isoxazol-5-yl]-1H-pyrrolo[2,3-b]pyridin-5-yl}-pyridin-4-ylmethyl)-dimethyl-amine]: the inhibitory constant (Ki) on c-KIT is less than 200 nM; on GSK-3β, (AA 1-420), less than 200 nM; at Aurora-2, 200 to 1000 nM.
On to `COc1cnc2[nH]cc(-c3oncc3-c3cccc(Cl)c3Cl)c2c1` [Compound 49, 3-[4-(2,3-Dichloro-phenyl)-isoxazol-5-yl]-5-methoxy-1H-pyrrolo[2,3-b]pyridine], for which the Ki at c-KIT was less than 200 nM; at GSK-3β, (AA 1-420), 200 to 1000 nM; at Aurora-2 it was less than 200 nM.
For the compound `Fc1cccc(-c2cnoc2-c2c[nH]c3ncc(-c4ccc(N5CCNCC5)cc4)cc23)c1F` [Compound 68, 3-[4-(2,3-Difluoro-phenyl)-isoxazol-5-yl]-5-(4-piperazin-1-yl-phenyl)-1H-pyrrolo[2,3-b]pyridine], the Ki was less than 200 nM on c-KIT; less than 200 nM at GSK-3β, (AA 1-420); less than 200 nM at Aurora-2.
For `CN1CCN(c2ccc(-c3cnc4[nH]cc(-c5oncc5-c5cccc(F)c5F)c4c3)cc2)CC1` [Compound 70, 3-[4-(2,3-Difluoro-phenyl)-isoxazol-5-yl]-5-[4-(4-methyl-piperazin-1-yl)-phenyl]-1H-pyrrolo[2,3-b]pyridine methanesulfonate], the Ki on c-KIT is less than 200 nM; at GSK-3β, (AA 1-420), less than 200 nM; on Aurora-2 it was less than 200 nM.
On to `Clc1cccc(-c2cnoc2-c2c[nH]c3ncc(-c4cccnc4)cc23)c1Cl` [Compound 99, 3-[4-(2,3-Dichloro-phenyl)-isoxazol-5-yl]-5-pyridin-3-yl-1H-pyrrolo[2,3-b]pyridine], for which the Ki on c-KIT was less than 200 nM; on GSK-3β, (AA 1-420), less than 200 nM; at Aurora-2 it was less than 200 nM.
In the case of `Fc1cccc(-c2cnoc2-c2c[nH]c3ncc(-c4ccncc4)cc23)c1F` [Compound 57, 3-[4-(2,3-Difluoro-phenyl)-isoxazol-5-yl]-5-pyridin-4-yl-1H-pyrrolo[2,3-b]pyridine], the Ki on c-KIT was less than 200 nM; on GSK-3β, (AA 1-420), 200 to 1000 nM; at Aurora-2, less than 200 nM.
Turning to `Fc1cccc(-c2cnoc2-c2c[nH]c3ncccc23)c1F` [Compound 1, 3-[4-(2,3-Difluoro-phenyl)-isoxazol-5-yl]-1H-pyrrolo[2,3-b]pyridine], the Ki on c-KIT is less than 200 nM; on GSK-3β, (AA 1-420) it was 1000 to 12500 nM; on Aurora-2 it was 200 to 1000 nM.
On to `COc1cnc2[nH]cc(-c3oncc3-c3cccc(F)c3F)c2c1` [Compound 38, 3-[4-(2,3-Difluoro-phenyl)-isoxazol-5-yl]-5-methoxy-1H-pyrrolo[2,3-b]pyridine], for which the Ki on c-KIT was less than 200 nM; on GSK-3β, (AA 1-420), 200 to 1000 nM; on Aurora-2 it was 200 to 1000 nM.
On to `Oc1cccc(-c2cnc3[nH]cc(-c4oncc4-c4cccc(F)c4F)c3c2)c1` [Compound 87, 3-{3-[4-(2,3-Difluoro-phenyl)-isoxazol-5-yl]-1H-pyrrolo [2,3-b]pyridin-5-yl}-phenol], for which the inhibitory constant (Ki) was less than 200 nM on c-KIT; 1000 to 12500 nM at GSK-3β, (AA 1-420); less than 200 nM at Aurora-2.
In the case of `CN(C)Cc1ccc(-c2cnc3[nH]cc(-c4oncc4-c4cccc(F)c4F)c3c2)cc1` [Compound 91, (4-{3-[4-(2,3-Difluoro-phenyl)-isoxazol-5-yl]-1H-pyrrolo[2,3-b]pyridin-5-yl}-benzyl)-dimethyl-amine], the inhibition constant (Ki) on c-KIT is less than 200 nM; at GSK-3β, (AA 1-420), 1000 to 12500 nM; at Aurora-2, 200 to 1000 nM.
On to `Fc1cccc(-c2cnoc2-c2c[nH]c3ncc(-c4c[nH]cn4)cc23)c1F` [Compound 76, 3-[4-(2,3-Difluoro-phenyl)-isoxazol-5-yl]-5-(3H-imidazol-4-yl)-1H-pyrrolo[2,3-b]pyridine], for which the Ki is less than 200 nM at c-KIT; 200 to 1000 nM on GSK-3β, (AA 1-420); less than 200 nM on Aurora-2.
For the compound `Fc1c(Cl)cccc1-c1cnoc1-c1c[nH]c2ncccc12` [Compound 42, 3-[4-(3-Chloro-2-fluoro-phenyl)-isoxazol-5-yl]-1H-pyrrolo[2,3-b]pyridine], the Ki was in the range of 1000 to 12500 nM at GSK-3β, (AA 1-420) and 200 to 1000 nM at Aurora-2.
Consider `Oc1cnc2[nH]cc(-c3oncc3-c3cccc(F)c3F)c2c1` [Compound 43, 3-[4-(2,3-Difluoro-phenyl)-isoxazol-5-yl]-1H-pyrrolo[2,3-b]pyridin-5-ol], for which the Ki was less than 200 nM on c-KIT; 200 to 1000 nM on GSK-3β, (AA 1-420); 200 to 1000 nM on Aurora-2.
For the compound `CN1CCN(c2ccc(-c3cnc4[nH]cc(-c5oncc5-c5cccc(F)c5F)c4c3)cn2)CC1` [Compound 71, 3-[4-(2,3-Difluoro-phenyl)-isoxazol-5-yl]-5-[6-(4-methyl-piperazin-1-yl)-pyridin-3-yl]-1H-pyrrolo[2,3-b]pyridine], the Ki at c-KIT is less than 200 nM; on GSK-3β, (AA 1-420), 200 to 1000 nM; at Aurora-2, less than 200 nM.
In the case of `Fc1cccc(-c2cnoc2-c2c[nH]c3ncc(-c4ncccn4)cc23)c1F` [Compound 75, 3-[4-(2,3-Difluoro-phenyl)-isoxazol-5-yl]-5-pyrimidin-2-yl-1H-pyrrolo[2,3-b]pyridine], the Ki on GSK-3β, (AA 1-420) lay in the range of 1000 to 12500 nM; at Aurora-2, 200 to 1000 nM.
Taken in the same sequence, the figures for `Fc1cccc(-c2cnoc2-c2c[nH]c3ncc(-c4ccccc4)cc23)c1F` [Compound 58, 3-[4-(2,3-Difluoro-phenyl)-isoxazol-5-yl]-5-phenyl-1H-pyrrolo[2,3-b]pyridine] were 200 to 1000 nM and 200 to 1000 nM.
`Clc1cccc(-c2cnoc2-c2c[nH]c3ncccc23)c1Cl` [Compound 2, 3-[4-(2,3-Dichloro-phenyl)-isoxazol-5-yl]-1H-pyrrolo[2,3-b]pyridine]: the Ki on GSK-3β, (AA 1-420) lay in the range of 1000 to 12500 nM; on Aurora-2, 200 to 1000 nM.
Consider `Oc1cnc2[nH]cc(-c3oncc3-c3cccc(Cl)c3Cl)c2c1` [Compound 48, 3-[4-(2,3-Dichloro-phenyl)-isoxazol-5-yl]-1H-pyrrolo[2,3-b]pyridin-5-ol], for which the Ki on c-KIT was in the range of 200 to 1000 nM; on GSK-3β, (AA 1-420) it was 1000 to 12500 nM; on Aurora-2 it was 200 to 1000 nM.
On to `Nc1cccc(-c2cnc3[nH]cc(-c4oncc4-c4cccc(F)c4F)c3c2)c1` [Compound 86, 3-{3-[4-(2,3-Difluoro-phenyl)-isoxazol-5-yl]-1H-pyrrolo [2,3-b]pyridin-5-yl}-phenylamine], for which the Ki on c-KIT was less than 200 nM; on GSK-3β, (AA 1-420), less than 200 nM; on Aurora-2, less than 200 nM.
`COc1cncc(-c2cnc3[nH]cc(-c4oncc4-c4cccc(F)c4F)c3c2)c1` [Compound 96, 3-[4-(2,3-Difluoro-phenyl)-isoxazol-5-yl]-5-(5-methoxy-pyridin-3-yl)-1H-pyrrolo[2,3-b]pyridine]: the Ki is less than 200 nM at c-KIT; 200 to 1000 nM at GSK-3β, (AA 1-420); less than 200 nM on Aurora-2.
As to `Fc1cccc(-c2cnoc2-c2c[nH]c3ncc(-c4cccnc4)cc23)c1F` [Compound 59, 3-[4-(2,3-Difluoro-phenyl)-isoxazol-5-yl]-5-pyridin-3-yl-1H-pyrrolo[2,3-b]pyridine], the Ki is less than 200 nM on c-KIT; 200 to 1000 nM at GSK-3β, (AA 1-420); less than 200 nM at Aurora-2.
`Nc1ccc(-c2cnc3[nH]cc(-c4oncc4-c4cccc(F)c4F)c3c2)cc1` [Compound 90, 4-{3-[4-(2,3-Difluoro-phenyl)-isoxazol-5-yl]-1H-pyrrolo [2,3-b]pyridin-5-yl}-phenylamine]: the Ki on c-KIT was less than 200 nM; on GSK-3β, (AA 1-420), less than 200 nM; on Aurora-2 it was less than 200 nM.
As for `Fc1cccc(-c2cnoc2-c2c[nH]c3ncc(-c4ccc(CN5CCOCC5)cc4)cc23)c1F` [Compound 92, 3-[4-(2,3-Difluoro-phenyl)-isoxazol-5-yl]-5-(4-morpholin-4-ylmethyl-phenyl)-1H-pyrrolo[2,3-b]pyridine], the Ki at c-KIT was less than 200 nM; on GSK-3β, (AA 1-420), 200 to 1000 nM; at Aurora-2, less than 200 nM.
In the case of `Cc1noc(-c2c[nH]c3ncccc23)c1-c1cccc(F)c1F` [Compound 134, 3-[4-(2,3-Difluoro-phenyl)-3-methyl-isoxazol-5-yl]-1H-pyrrolo[2,3-b]pyridine], the Ki was in the range of 200 to 1000 nM at GSK-3β, (AA 1-420) and 200 to 1000 nM at Aurora-2.
